Source: patent EP1431280A1, “ARYL SULFAMATE DERIVATIVES” (Kyowa Hakko Kogyo Co., Ltd, priority 2001, dated 2003)

These molecules were tested against T1, recombinant human estrone sulfatase (Homo sapiens, UniProt P08842) (assay: Test for inhibition of estrone sulfatase (steroid sulfatase)). Conditions: 4-methylumbelliferyl sulfate 0.3 mmol/L, phosphate buffer pH 7.5, 37 °C, 1 hour, fluorescence of 4-methylumbelliferone; read-out: IC50, inhibitory activity against steroid sulfatase.
T1 construct: made in house; host or cells: Chinese Hamster Ovary (CHO) cells
T1 sequence (P08842 22-583): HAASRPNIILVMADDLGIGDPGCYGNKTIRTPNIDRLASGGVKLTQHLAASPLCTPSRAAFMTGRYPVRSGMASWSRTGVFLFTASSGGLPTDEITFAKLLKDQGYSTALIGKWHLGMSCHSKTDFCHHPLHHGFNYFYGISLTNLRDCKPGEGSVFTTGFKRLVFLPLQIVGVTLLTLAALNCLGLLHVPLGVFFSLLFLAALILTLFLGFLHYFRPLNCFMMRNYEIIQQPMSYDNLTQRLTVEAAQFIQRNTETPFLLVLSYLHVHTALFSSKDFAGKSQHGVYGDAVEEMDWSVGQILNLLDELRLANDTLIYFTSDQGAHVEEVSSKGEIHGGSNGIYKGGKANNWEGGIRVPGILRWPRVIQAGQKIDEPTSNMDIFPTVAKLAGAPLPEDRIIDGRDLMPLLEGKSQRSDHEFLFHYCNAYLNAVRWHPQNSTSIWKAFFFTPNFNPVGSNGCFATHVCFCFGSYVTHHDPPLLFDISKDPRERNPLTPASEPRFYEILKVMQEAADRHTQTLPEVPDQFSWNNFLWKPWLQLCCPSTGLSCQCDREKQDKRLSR
Type: biochemical
Procedure: 4-Methylumbelliferyl sulfate (final concentration 0.3 mmol/L), recombinant human estrone sulfatase (7.8 ng/well), and each solution of the test compound having each test concentrations (test compound was dissolved in 0.001 mL of DMSO) were added to a phosphate buffer (pH 7.5) (final volume 0.1 mL) containing 0.28 mol/L sucrose and 0.04 mol/L nicotinamide. An enzyme reaction was conducted at 37 °C for 1 hour. The human estrone sulfatase gene was introduced into Chinese Hamster Ovary (CHO) cells, and the recombinant human estrone sulfatase was expressed, then it was used after partial purification. After completing the enzyme reaction, 2 mol/L glycine-sodium hydroxide solution (pH 10.3) (0.13 mL) was added and stirred. Using a fluorescent plate reader (Cyto Fluor II), the fluorescent strength of the generated 4-methylumbelliferone was measured. The measurements were conducted in duplicate at the same time. The fluctuations within the assay were within 10%. An enzyme reaction without the presence of a test compound was conducted at the same time. The inhibitory activity against estrone sulfatase for each concentration of the test compounds was calculated using the following equation. • A: Amount of 4-methylumbelliferone when test compound is present • B: Amount of 4-methylumbelliferone when test compound is not present [formula]
The inhibitory activity against estrone sulfatase of the aryl sulfamate derivative can be expressed as the concentration (IC50) of aryl sulfamate derivative at which the estrone sulfatase activity in the presence of the aryl sulfamate derivative is half of that when no test compound is added.

Row | Compound | IC50
1 | CCCCCCCCCNC(=O)C#Cc1ccc(OS(N)(=O)=O)cc1 [Compound 57] | 99 nM
2 | CCCCCCCCCNC(=O)C(C#N)=C(CF)c1ccc(OS(N)(=O)=O)cc1 [Compound 19] | 35 nM
3 | CCCCCCCCCNC(=O)C=C(C#N)c1ccc(OS(N)(=O)=O)cc1 [Compound 47] | 44 nM
4 | CCCCCCCCCNC(=O)CC(=O)c1ccc(OS(N)(=O)=O)cc1 [Compound 58] | 31 nM
5 | CCCCCCCNC(=O)C(C#N)=Cc1ccc(OS(N)(=O)=O)cc1 [Compound 6] | 12 nM
6 | CCCCCCCCCNC(=O)C(C#N)=Cc1ccc(OS(N)(=O)=O)cc1 [Compound 5] | 14 nM
7 | CCCCCCCCNC(=O)/C(C#N)=C(\C)c1ccc(OS(N)(=O)=O)cc1 [Compound 15] | < 12 nM
8 | CCCCCCCCCNC(=O)C(C#N)=C(O)c1ccc(OS(N)(=O)=O)cc1 [Compound 22] | < 12 nM
9 | CCCCCCCCCNC(=O)C(C#N)=C(CC)c1ccc(OS(N)(=O)=O)cc1 [Compound 17] | 17 nM
10 | CCCCCCCNC(=O)C(C#N)=C(C)c1ccc(OS(N)(=O)=O)cc1 [Compound 16] | < 12 nM
